Reference: publication PMC5891627, “Binding Specificity of Two PBPs in the Yellow Peach Moth Conogethes punctiferalis (Guenée)” (Frontiers in Physiology, 2018)
Where two headings read alike, the source gives them in different places.

Tests used:
CpunPBP2 = CpunPBP2 (Conogethes punctiferalis, UniProt A0A1D6X8W8); assay: Fluorescence displacement (competitive, 1-NPN) binding assay; conditions: for IC50: 1-NPN 2 μM as fluorescent reporter, 2 μM protein; for binding affinity to CpunPBP2 (in words): ranking among the 24 tested ligands
Sequence of CpunPBP2 (A0A1D6X8W8 entry or part of it): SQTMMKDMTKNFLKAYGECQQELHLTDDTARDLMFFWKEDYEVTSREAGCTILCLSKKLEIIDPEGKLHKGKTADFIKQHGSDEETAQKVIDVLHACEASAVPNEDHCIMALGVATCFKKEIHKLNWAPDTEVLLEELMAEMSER
Protocol: (§1) The fluorescence intensity was recorded on a FluoroMax-4 spectrophotometer (Horiba Scientific, USA) at room temperature using a 1 cm light path fluorimeter quartz cuvette. The fluorescent probe N-phenyl-1-naphthylamine (1-NPN) and all the tested chemicals were dissolved in HPLC purity methanol. The final concentration was prepared 1 mM. […] The fluorescence of 1-NPN was excited at 337 nm and emission spectra were recorded between […]. […] The GraphPad Prism 5 (GraphPad Software, Inc.) was used to estimate the K1−NPN (KD of complex protein /1-NPN) values by nonlinear regression for a unique site of binding. It was assumed that the proteins were 100% active, with a stoichiometry of 1:1 (protein:ligand) at saturation. […] In the equation, [1-NPN] is the free concentration of 1-NPN, and K1−NPN is the dissociation constant of the complex protein /1-NPN.

CpunPBP5 = CpunPBP5 (Conogethes punctiferalis, UniProt A0A0M4FIS7); assay: as above; conditions: for binding affinity to CpunPBP5 (in words): ranking among the 24 tested ligands
Sequence of CpunPBP5 (A0A0M4FIS7 entry or part of it): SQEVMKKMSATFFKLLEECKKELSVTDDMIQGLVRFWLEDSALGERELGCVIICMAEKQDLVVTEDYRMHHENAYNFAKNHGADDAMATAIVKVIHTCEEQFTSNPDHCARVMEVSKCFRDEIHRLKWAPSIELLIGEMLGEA
Protocol: as §1

[1] = pH = 7.4, calculated from IC50: KD = [IC50]/(1+[1-NPN]/K1-NPN), read-out: KD (μM), calculated dissociation constant
[2] = ratio of fluorescence intensity at the pheromone concentration of 6 mM to the initial fluorescence intensity, pH = 7.4
[3] = pH = 7.4, 1-NPN 2 μM as fluorescent reporter, 2 μM protein, read-out: IC50
[4] = read-out: KD (μM), calculated dissociation constant, pH = 7.4, calculated from IC50: KD = [IC50]/(1+[1-NPN]/K1-NPN)
[5] = ratio of fluorescence intensity at the pheromone concentration of 6 mM to the initial fluorescence intensity, pH = 7.4, read-out: Int (%)

Molecule | IC50 (CpunPBP2; pH = 7.4, read-out: IC50) | Kd (CpunPBP2; [1]) | Int (%) (CpunPBP2; [2]) | IC50 (CpunPBP5; [3]) | Kd (CpunPBP5; [1]) | Int (%) (CpunPBP5; [2]) | activity at 6000 µM (CpunPBP2; pH 7.4, read-out: Int (%)) | activity at 6000 µM (CpunPBP5; pH 7.4, read-out: Int (%)) | activity at 6000 µM (CpunPBP2; [5]) | activity at 6000 µM (CpunPBP5; [5]) | Kd (CpunPBP2; read-out: dissociation constant (KD) of CpunPBP2/1-NPN complex, direct titration of 2 μM protein with 1-NPN, Scatchard plot, pH 7.4) | Kd (CpunPBP5) | IC50 (CpunPBP2; pH = 7.4) | binding affinity to CpunPBP2 (in words) (CpunPBP2) | Kd (CpunPBP2; [4]) | IC50 (CpunPBP5) | binding affinity to CpunPBP5 (in words) (CpunPBP5)
c1ccc(Nc2cccc3ccccc23)cc1 [1-NPN, N-phenyl-1-naphthylamine, reference compound] |  |  |  |  |  |  |  |  |  |  | 0.76 ± 0.1 µM | 0.58 ± 0.04 µM |  |  |  |  | 
CCCCCCCCCCCCCCO [1-tetrodecanol] |  |  |  |  |  |  | 45.55 ± 0.38% | 42.29 ± 0.12% |  |  |  | 2.86 ± 0.02 µM | 3.94 ± 0.14 µM | highest binding affinity | 2.28 ± 0.08 µM | 3.53 ± 0.03 µM | highest binding affinity
C=C(C)[C@H]1CC=C(C)CC1 [Limonene] | 11.9 ± 0.67 µM | 6.92 ± 0.39 µM | 82.86 ± 0.44% | 10.7 ± 0.22 µM | 8.67 ± 0.18 µM | 60.13 ± 0.09% |  |  |  |  |  |  |  |  |  |  | 
C=CC(C)(O)CCC=C(C)C (centres unmarked) [Linalool] |  |  |  |  |  |  |  |  | 72.27 ± 0.43% | 66.92 ± 0.13% |  | 13.7 ± 1.15 µM | 22 ± 4.72 µM | minimum binding affinities | 12.8 ± 2.74 µM | 17 ± 1.42 µM | minimum binding abilities
CCCCCCCCCCC=O [Undecanal] | 7.49 ± 0.15 µM | 4.34 ± 0.08 µM |  | 8.67 ± 0.04 µM | 7.01 ± 0.03 µM |  |  |  | 56.59 ± 0.32% | 58.66 ± 0.31% |  |  |  |  |  |  | 
COc1cc(C=O)ccc1O [Vanillin] |  |  |  |  |  |  |  |  | 85.4 ± 0.31% | 71.19 ± 0.36% |  | 20.4 ± 2.35 µM | 19.9 ± 1 µM |  | 11.6 ± 0.58 µM | 25.1 ± 2.9 µM | minimum binding abilities
CC/C=C\CCO [cis-3-hexen-1-ol] |  |  |  |  |  |  | 89.59 ± 0.25% | 66.81 ± 0.61% |  |  |  | 14.9 ± 1.12 µM | 34.5 ± 3.2 µM | minimum binding affinities | 20 ± 1.85 µM | 18.4 ± 1.38 µM | minimum binding abilities
CC1=CCC2CC1C2(C)C (stereo not drawn) [α-pinene] |  |  |  |  |  |  |  |  | 77.7 ± 0.33% | 74.88 ± 0.39% |  | 11.4 ± 1.02 µM | 27.9 ± 4.3 µM | minimum binding affinities | 16.2 ± 2.5 µM | 14.1 ± 1.26 µM | 
C=C1CCC2CC1C2(C)C (stereo not drawn) [β-pinene] |  |  |  |  |  |  | 80.45 ± 0.68% | 68.43 ± 0.63% |  |  |  | 9.3 ± 0.31 µM | 21 ± 2.26 µM | minimum binding affinities | 12.2 ± 1.31 µM | 11.5 ± 0.39 µM | 
Hexenal | 34.56 ± 0.12 µM | 20 ± 0.68 µM | 83.11 ± 0.15% | 11.7 ± 0.66 µM | 9.44 ± 0.53 µM | 60.86 ± 0.49% |  |  |  |  |  |  |  | minimum binding affinities |  |  | 

The next lines start with results.

IC50 (CpunPBP2; pH = 7.4, read-out: IC50) | Kd (CpunPBP2; [1]) | Int (%) (CpunPBP2; [2]) | IC50 (CpunPBP5; [3]) | Kd (CpunPBP5; [1]) | Int (%) (CpunPBP5; [2]) | activity at 6000 µM (CpunPBP2; pH 7.4, read-out: Int (%)) | activity at 6000 µM (CpunPBP5; pH 7.4, read-out: Int (%)) | activity at 6000 µM (CpunPBP2; [5]) | activity at 6000 µM (CpunPBP5; [5]) | Molecule | Kd (CpunPBP2; read-out: dissociation constant (KD) of CpunPBP2/1-NPN complex, direct titration of 2 μM protein with 1-NPN, Scatchard plot, pH 7.4) | Kd (CpunPBP5) | IC50 (CpunPBP2; pH = 7.4) | binding affinity to CpunPBP2 (in words) (CpunPBP2) | Kd (CpunPBP2; [4]) | IC50 (CpunPBP5) | binding affinity to CpunPBP5 (in words) (CpunPBP5)
6.17 ± 0.14 µM | 3.58 ± 0.08 µM | 50.42 ± 0.51% | 4.67 ± 0.02 µM | 3.78 ± 0.01 µM | 45.87 ± 0.10% |  |  |  |  | C=C1CC/C=C(\C)CC[C@@H]2[C@@H]1CC2(C)C (relative stereo) [Trans-caryopyllene] |  |  |  |  |  |  | 
11 ± 0.32 µM | 6.38 ± 0.19 µM |  | 8.2 ± 0.1 µM | 6.64 ± 0.08 µM |  |  |  | 78.17 ± 0.43% | 54.82 ± 0.07% | CCC(C)CCCC(C)C (centres unmarked) [2,6-Dimethyloctane] |  |  |  |  |  |  | 
13.1 ± 0.24 µM | 7.62 ± 0.14 µM |  | 15.2 ± 0.6 µM | 12.5 ± 0.49 µM |  |  |  | 72.86 ± 0.24% | 72.6 ± 0.11% | CCCCCCCCCC=O [Decanal] |  |  |  |  |  |  | 
17.9 ± 0.83 µM | 10.4 ± 0.48 µM |  | 19.7 ± 0.95 µM | 15.9 ± 0.77 µM |  |  |  | 84.85 ± 0.31% | 68.32 ± 0.21% | CCCCCCC=O [Heptanal] |  |  |  |  |  |  | minimum binding abilities
14.7 ± 0.47 µM | 8.5 ± 0.27 µM |  | 13.1 ± 0.62 µM | 10.6 ± 0.78 µM |  |  |  | 77.22 ± 0.07% | 65.83 ± 0.28% | CCCCCCCCC=O [Nonanal] |  |  |  |  |  |  | 
14.2 ± 0.71 µM | 8.27 ± 0.41 µM |  | 7.27 ± 0.06 µM | 5.89 ± 0.47 µM |  |  |  | 73.64 ± 0.06% | 53.54 ± 0.01% | CCCCCCCCCCCCCCCC(=O)O [Palmitic acid] |  |  |  |  |  |  | 
22.3 ± 1.3 µM | 12.9 ± 0.76 µM |  | 9.62 ± 0.58 µM | 7.79 ± 0.48 µM |  |  |  | 86.46 ± 0.38% | 59 ± 0.62% | CCCCCC/C=C/C=O [Trans-2-nonenal] |  |  |  | minimum binding affinities |  |  | 
12.3 ± 0.84 µM | 7.15 ± 0.49 µM | 62.32 ± 0.13% | 12.2 ± 0.66 µM | 9.89 ± 0.53 µM | 62.12 ± 0.30% |  |  |  |  | CCCCC/C=C/C=O [Trans-2-octanal] |  |  |  |  |  |  | 
 |  |  |  |  |  | 61.8 ± 1.49% | 55.28 ± 0.1% |  |  | CC(=O)/C=C/C1C(C)=CCCC1(C)C (stereo not drawn) [α-ionone] |  | 6.79 ± 0.08 µM | 10.7 ± 0.97 µM |  | 6.22 ± 0.56 µM | 8.39 ± 0.1 µM | 
2.82 ± 0.19 µM | 1.63 ± 0.11 µM | 40.51 ± 0.78% | 5.25 ± 0.02 µM | 4.25 ± 0.02 µM | 47.47 ± 0.12% |  |  |  |  | C=CC(=C)CC/C=C(\C)CCC=C(C)C [β-farnesene] |  |  |  |  |  |  | 
 |  |  |  |  |  | 88.04 ± 0.58% | 62.6 ± 0.79% |  |  | CC(=O)/C=C/C1=C(C)CCCC1(C)C [β-ionone] |  | 9.85 ± 0.38 µM | 17.3 ± 0.84 µM |  | 10.1 ± 0.49 µM | 12.2 ± 0.47 µM | 
